Test results: ChEMBL document CHEMBL1759974, “Discovery of triazine-benzimidazoles as selective inhibitors of mTOR” (Bioorg Med Chem Lett, 2011)

How the values were obtained:
[1] = molecular target: T1, Serine/threonine-protein kinase mTOR (Homo sapiens, UniProt P42345)
[2] = molecular target: T1, Serine/threonine-protein kinase mTOR; remark: listed apart in the source
[3] = molecular target: T1, Serine/threonine-protein kinase mTOR; remark: listed apart in the source
Description: Inhibition of mTOR in human U-87 cells assessed as inhibition of phosphorylation of AKT at S473

[4] = molecular target: Phosphatidylinositol 4,5-bisphosphate 3-kinase catalytic subunit alpha isoform (Homo sapiens, UniProt P42336)
[5] = molecular target: Phosphatidylinositol 4,5-bisphosphate 3-kinase catalytic subunit beta isoform (Homo sapiens, UniProt P42338)
[6] = molecular target: T2, Phosphatidylinositol 4,5-bisphosphate 3-kinase catalytic subunit delta isoform (Homo sapiens, UniProt O00329)
T2 sequence (O00329 whole entry): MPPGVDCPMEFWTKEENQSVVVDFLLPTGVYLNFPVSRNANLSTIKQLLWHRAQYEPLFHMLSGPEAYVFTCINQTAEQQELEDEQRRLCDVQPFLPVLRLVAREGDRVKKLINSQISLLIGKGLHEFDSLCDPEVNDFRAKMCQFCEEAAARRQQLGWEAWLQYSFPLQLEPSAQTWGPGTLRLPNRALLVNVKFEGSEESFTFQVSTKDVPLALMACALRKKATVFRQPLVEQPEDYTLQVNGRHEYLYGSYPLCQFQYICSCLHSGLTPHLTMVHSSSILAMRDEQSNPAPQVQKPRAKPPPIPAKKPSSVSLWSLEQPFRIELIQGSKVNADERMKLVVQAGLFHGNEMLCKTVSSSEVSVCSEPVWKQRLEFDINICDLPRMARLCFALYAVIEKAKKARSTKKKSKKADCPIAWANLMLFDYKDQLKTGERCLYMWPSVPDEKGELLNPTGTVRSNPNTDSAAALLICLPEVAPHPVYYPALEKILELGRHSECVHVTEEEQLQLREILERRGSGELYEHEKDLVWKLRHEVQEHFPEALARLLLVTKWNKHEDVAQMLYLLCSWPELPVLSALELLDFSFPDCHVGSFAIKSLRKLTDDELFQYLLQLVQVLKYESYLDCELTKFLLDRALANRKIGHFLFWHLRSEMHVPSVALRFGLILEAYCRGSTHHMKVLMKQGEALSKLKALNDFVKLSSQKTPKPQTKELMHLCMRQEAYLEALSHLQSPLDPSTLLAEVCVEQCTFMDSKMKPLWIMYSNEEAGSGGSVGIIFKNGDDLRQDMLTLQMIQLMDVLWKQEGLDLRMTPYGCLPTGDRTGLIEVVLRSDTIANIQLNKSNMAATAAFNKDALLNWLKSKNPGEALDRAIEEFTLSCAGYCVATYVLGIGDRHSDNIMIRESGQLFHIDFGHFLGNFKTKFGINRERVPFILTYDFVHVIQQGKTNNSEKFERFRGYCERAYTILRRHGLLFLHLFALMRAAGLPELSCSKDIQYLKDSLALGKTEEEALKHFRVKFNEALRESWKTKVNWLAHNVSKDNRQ

[7] = molecular target: Phosphatidylinositol 4,5-bisphosphate 3-kinase catalytic subunit gamma isoform (Homo sapiens, UniProt P48736)
[8] = molecular target: Receptor-type tyrosine-protein kinase FLT3 (Homo sapiens) (UniProt P36888); assay: Inhibition of FLT3 at 1 uM relative to control
[9] = molecular target: Casein kinase II subunit alpha (Homo sapiens) (UniProt P68400); assay: Inhibition of CSNK2A1 at 1 uM relative to control
[10] = Clearance in Sprague-Dawley rat at 1 mg/kg, iv and 2 mg/kg, po; format: ADME, organism-based; conditions: in vivo
[11] = Volume of distribution at steady state in Sprague-Dawley rat at 1 mg/kg, iv and 2 mg/kg, po; format: ADME, organism-based; conditions: in vivo, read-out: Vdss
[12] = tested on: Rattus norvegicus; assay: AUC in Sprague-Dawley rat at 1 mg/kg, iv; format: ADME, organism-based, Plasma; set-up: dose 1 mg/kg, route intravenous; conditions: in vivo
[13] = Half life in Sprague-Dawley rat at 1 mg/kg, iv; format: ADME, organism-based; set-up: dose 1 mg/kg, route intravenous; conditions: in vivo
[14] = Oral bioavailability in Sprague-Dawley rat at 2 mg/kg; format: ADME, organism-based; conditions: in vivo
[15] = Plasma protein binding in Sprague-Dawley rat at 1 mg/kg, iv and 2 mg/kg, po; format: ADME, organism-based; conditions: read-out: PPB (converted)
[16] = Intrinsic clearance in human liver microsomes; format: ADME, Microsome
[17] = Intrinsic clearance in rat liver microsomes; format: ADME, Microsome

Sequence of Phosphatidylinositol 4,5-bisphosphate 3-kinase catalytic subunit beta isoform (P42338 whole entry, canonical isoform): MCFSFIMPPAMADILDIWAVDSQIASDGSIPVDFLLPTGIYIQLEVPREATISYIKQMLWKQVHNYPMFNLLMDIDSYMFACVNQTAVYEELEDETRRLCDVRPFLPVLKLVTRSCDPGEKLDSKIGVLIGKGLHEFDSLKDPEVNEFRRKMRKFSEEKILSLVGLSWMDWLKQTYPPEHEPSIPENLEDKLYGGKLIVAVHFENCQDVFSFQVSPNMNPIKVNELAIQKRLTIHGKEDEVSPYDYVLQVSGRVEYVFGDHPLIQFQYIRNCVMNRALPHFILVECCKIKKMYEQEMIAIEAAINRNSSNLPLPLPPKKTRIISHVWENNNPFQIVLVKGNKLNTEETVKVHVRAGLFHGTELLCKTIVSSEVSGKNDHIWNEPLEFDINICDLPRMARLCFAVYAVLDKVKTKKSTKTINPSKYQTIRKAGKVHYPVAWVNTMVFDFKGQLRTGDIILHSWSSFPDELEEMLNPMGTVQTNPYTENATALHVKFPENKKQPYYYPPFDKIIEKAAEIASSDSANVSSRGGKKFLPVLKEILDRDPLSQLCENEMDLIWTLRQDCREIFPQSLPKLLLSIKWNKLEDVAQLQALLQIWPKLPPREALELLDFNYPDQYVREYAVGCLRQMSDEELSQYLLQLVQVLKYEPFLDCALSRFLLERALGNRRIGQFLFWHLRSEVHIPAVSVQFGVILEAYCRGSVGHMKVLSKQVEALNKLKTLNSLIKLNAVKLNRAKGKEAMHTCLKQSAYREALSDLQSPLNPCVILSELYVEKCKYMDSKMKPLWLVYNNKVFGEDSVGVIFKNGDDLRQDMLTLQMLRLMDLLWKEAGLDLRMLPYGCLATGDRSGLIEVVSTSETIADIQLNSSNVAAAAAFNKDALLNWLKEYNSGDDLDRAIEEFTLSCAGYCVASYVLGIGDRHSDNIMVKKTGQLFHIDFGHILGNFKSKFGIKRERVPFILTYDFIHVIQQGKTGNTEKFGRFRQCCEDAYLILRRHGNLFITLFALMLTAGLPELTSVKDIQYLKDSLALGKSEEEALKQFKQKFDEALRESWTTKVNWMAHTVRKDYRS
Sequence of Phosphatidylinositol 4,5-bisphosphate 3-kinase catalytic subunit gamma isoform (P48736 whole entry, canonical isoform): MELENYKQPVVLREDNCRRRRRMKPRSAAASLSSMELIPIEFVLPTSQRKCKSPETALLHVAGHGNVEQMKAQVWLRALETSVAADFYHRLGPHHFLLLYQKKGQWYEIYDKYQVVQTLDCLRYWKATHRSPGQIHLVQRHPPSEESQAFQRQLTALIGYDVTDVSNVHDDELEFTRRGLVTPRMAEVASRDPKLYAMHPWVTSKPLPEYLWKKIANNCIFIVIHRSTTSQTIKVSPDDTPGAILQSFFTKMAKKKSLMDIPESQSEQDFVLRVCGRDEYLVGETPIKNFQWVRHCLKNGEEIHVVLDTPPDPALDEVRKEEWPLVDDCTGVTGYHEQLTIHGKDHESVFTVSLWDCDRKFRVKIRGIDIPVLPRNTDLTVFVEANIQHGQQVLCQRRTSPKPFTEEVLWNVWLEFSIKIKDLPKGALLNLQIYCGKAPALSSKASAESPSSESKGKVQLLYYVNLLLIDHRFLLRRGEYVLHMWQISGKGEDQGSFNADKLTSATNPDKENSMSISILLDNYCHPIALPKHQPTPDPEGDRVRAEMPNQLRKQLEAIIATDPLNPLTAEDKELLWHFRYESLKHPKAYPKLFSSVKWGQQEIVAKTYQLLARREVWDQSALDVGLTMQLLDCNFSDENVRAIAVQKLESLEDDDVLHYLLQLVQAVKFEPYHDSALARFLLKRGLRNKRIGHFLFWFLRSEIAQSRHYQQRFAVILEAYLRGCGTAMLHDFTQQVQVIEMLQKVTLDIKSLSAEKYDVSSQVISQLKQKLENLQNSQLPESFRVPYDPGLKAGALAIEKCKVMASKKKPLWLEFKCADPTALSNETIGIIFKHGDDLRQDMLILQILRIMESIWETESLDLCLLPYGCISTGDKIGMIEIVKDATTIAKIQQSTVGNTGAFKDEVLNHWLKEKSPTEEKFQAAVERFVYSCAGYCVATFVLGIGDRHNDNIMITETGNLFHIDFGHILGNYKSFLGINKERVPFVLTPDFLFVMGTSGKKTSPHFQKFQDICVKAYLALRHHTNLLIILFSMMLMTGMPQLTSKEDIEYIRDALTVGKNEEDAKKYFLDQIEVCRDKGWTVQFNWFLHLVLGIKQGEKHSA
Sequence of Phosphatidylinositol 4,5-bisphosphate 3-kinase catalytic subunit alpha isoform (P42336 whole entry, canonical isoform): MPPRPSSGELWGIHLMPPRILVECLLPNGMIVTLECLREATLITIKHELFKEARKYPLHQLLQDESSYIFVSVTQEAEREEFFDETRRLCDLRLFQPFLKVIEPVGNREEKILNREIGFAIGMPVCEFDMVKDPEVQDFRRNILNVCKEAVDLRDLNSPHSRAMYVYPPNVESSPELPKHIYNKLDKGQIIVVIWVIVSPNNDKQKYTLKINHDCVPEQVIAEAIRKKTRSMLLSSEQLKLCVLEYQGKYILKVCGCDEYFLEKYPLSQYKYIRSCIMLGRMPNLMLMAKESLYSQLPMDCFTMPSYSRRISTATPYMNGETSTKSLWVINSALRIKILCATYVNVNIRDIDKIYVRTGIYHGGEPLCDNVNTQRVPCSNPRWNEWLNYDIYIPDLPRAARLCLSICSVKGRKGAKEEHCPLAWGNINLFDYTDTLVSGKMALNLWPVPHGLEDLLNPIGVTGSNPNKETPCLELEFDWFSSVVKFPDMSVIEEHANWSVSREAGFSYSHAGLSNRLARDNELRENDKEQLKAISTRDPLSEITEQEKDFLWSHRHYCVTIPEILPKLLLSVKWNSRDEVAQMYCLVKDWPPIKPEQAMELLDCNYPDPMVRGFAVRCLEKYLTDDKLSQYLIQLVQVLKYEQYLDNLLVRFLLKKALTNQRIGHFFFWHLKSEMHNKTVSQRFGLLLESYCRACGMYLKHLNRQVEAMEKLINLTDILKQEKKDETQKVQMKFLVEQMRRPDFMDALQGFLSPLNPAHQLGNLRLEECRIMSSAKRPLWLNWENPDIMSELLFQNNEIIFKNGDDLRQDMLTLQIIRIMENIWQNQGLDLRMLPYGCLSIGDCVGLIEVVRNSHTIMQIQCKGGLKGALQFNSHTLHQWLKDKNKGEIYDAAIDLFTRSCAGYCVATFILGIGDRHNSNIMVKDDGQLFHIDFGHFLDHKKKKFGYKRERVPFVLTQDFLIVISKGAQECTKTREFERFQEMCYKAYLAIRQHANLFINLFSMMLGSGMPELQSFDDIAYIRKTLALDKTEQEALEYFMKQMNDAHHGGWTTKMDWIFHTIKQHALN
Sequence of Casein kinase II subunit alpha (Homo sapiens) (P68400 whole entry, looked up): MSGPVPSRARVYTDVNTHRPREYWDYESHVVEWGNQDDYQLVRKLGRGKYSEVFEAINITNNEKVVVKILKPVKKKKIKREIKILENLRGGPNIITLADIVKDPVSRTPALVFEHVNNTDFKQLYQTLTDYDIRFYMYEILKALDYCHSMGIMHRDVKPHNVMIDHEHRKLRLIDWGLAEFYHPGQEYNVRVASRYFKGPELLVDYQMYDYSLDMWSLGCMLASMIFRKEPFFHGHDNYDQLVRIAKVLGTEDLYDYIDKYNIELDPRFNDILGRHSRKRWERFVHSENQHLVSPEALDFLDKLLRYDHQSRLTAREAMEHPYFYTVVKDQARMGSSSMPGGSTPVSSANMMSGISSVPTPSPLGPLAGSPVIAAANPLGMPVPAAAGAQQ
Sequence of Receptor-type tyrosine-protein kinase FLT3 (Homo sapiens) (P36888 whole entry): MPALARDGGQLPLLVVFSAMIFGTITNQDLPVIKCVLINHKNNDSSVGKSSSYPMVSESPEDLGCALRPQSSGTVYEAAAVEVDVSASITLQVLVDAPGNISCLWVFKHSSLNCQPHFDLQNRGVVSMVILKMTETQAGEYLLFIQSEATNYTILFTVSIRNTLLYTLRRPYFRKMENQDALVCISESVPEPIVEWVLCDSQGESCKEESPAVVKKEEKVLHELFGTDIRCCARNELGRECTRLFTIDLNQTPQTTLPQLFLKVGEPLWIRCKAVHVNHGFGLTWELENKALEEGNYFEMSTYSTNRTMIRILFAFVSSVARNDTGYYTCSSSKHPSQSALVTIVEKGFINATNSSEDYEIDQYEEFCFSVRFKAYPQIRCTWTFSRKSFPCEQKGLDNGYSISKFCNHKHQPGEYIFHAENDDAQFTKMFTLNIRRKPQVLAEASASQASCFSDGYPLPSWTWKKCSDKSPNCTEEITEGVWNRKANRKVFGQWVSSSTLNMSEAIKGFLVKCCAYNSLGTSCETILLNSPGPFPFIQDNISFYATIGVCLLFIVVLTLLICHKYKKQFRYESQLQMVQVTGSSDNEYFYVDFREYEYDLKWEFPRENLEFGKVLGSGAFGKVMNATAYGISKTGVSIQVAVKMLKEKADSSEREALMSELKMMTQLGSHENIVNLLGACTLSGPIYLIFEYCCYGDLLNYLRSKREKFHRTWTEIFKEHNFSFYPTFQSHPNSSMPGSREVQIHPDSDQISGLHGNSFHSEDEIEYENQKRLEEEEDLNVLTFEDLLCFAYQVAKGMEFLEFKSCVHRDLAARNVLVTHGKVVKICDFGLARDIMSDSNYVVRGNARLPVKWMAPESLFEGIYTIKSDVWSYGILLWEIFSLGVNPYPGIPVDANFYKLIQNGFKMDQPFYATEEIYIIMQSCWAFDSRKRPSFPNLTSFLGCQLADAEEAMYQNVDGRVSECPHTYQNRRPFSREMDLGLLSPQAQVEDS

Row | Compound | IC50 [1] [nM] | IC50 [2] [nM] | IC50 [3] [nM] | IC50 [4] [nM] | IC50 [5] [nM] | IC50 [6] [nM] | IC50 [7] [nM] | inhibition [8] [%] | inhibition [9] [%] | clearance [10] [mL/min/kg] | Vd [11] [L/kg] | AUC [12] [nM] | half-life [13] [min] | bioavailability [14] [%] | fraction unbound [15] | microsomal CLint [16] [µL/min/mg] | microsomal CLint [17] [µL/min/mg]
1 | CC(=O)Nc1cccc(Nc2nc3ccccc3n2-c2nc(C)nc(N)n2)c1 | 290 | 1500 | 120 | 630 | 1400 | 890 | 110 | – | – | – | – | – | – | – | – | – | –
2 | Cc1nc(NCC#N)nc(-n2c(Nc3cccc(O)c3)nc3ccccc32)n1 | 8 | 380 | 17 | 32 | – | – | – | – | – | – | – | – | – | – | – | – | –
3 | Cc1nc(N)nc(-n2c(Nc3nc[nH]n3)nc3ccccc32)n1 | 33100 | > 25000 | 4600 | – | – | – | – | – | – | – | – | – | – | – | – | – | –
4 | Cc1nc(N)nc(-n2c(Nc3n[nH]c4ccccc34)nc3ccccc32)n1 | 60 | 4200 | 250 | 960 | 420 | 270 | 190 | – | – | – | – | – | – | – | – | – | –
5 | Cc1nc(N)nc(-n2c(Nc3cn[nH]c3)nc3ccccc32)n1 | 190 | 5300 | 180 | 460 | 1000 | 690 | 610 | – | – | – | – | – | – | – | – | – | –
6 | CCCc1nc(N)nc(-n2c(Nc3cccc(O)c3)nc3ccccc32)n1 | 4700 | > 25000 | 2640 | 3500 | – | – | – | – | – | – | – | – | – | – | – | – | –
7 | Cc1nc(N)nc(-n2c(Nc3cccc(C(N)=O)c3)nc3ccccc32)n1 | 175 | 3900 | 190 | 290 | 1030 | 40 | 480 | – | – | – | – | – | – | – | – | – | –
8 | Cc1nc(N)nc(-n2c(Nc3cccc(O)c3)nc3ccccc32)n1 | 7 | 150 | 9 | 4 | 9 | 3 | 8 | 14 | 15 | – | – | – | – | – | – | – | –
9 | Cc1nccc(-n2c(Nc3cccc(O)c3)nc3ccccc32)n1 | 370 | 8900 | 600 | 370 | – | – | – | – | – | – | – | – | – | – | – | – | –
10 | Cc1nc(N)nc(-n2c(Nc3ccnn3C)nc3ccccc32)n1 | > 50000 | > 25000 | 540 | 1900 | 6900 | 3300 | 2300 | – | – | – | – | – | – | – | – | – | –
11 | COc1nc(NCC#N)nc(-n2c(Nc3cccc(O)c3)nc3ccccc32)n1 | > 50000 | 21500 | 2100 | 520 | – | – | – | – | – | – | – | – | – | – | – | – | –
12 | Nc1cc(-n2c(Nc3cccc(O)c3)nc3ccccc32)ncn1 | 110 | 3500 | 420 | 1000 | – | – | – | – | – | – | – | – | – | – | – | – | –
13 | COc1ncnc(-n2c(Nc3cccc(O)c3)nc3ccccc32)n1 | > 50000 | > 25000 | 1900 | 1700 | – | – | – | – | – | – | – | – | – | – | – | – | –
14 | Cc1nc(N)nc(-n2c(Nc3ccccc3)nc3ccccc32)n1 | 420 | > 25000 | 190 | 260 | 1000 | 360 | 470 | – | – | – | – | – | – | – | – | – | –

The next lines start with the values.

Row | IC50 [1] [nM] | IC50 [2] [nM] | IC50 [3] [nM] | IC50 [4] [nM] | IC50 [5] [nM] | IC50 [6] [nM] | IC50 [7] [nM] | inhibition [8] [%] | inhibition [9] [%] | clearance [10] [mL/min/kg] | Vd [11] [L/kg] | AUC [12] [nM] | half-life [13] [min] | bioavailability [14] [%] | fraction unbound [15] | microsomal CLint [16] [µL/min/mg] | microsomal CLint [17] [µL/min/mg] | Compound
15 | 87 | 1200 | 43 | 42 | – | – | – | – | – | – | – | – | – | – | – | – | – | Cc1nc(N)cc(-n2c(Nc3cccc(O)c3)nc3ccccc32)n1
16 | 150 | > 25000 | 680 | 520 | 1800 | 140 | 26 | – | – | – | – | – | – | – | – | – | – | CNC(=O)c1ccc(Nc2nc3ccccc3n2-c2nc(C)nc(N)n2)o1
17 | 21000 | > 25000 | 2400 | 3600 | – | – | – | – | – | – | – | – | – | – | – | – | – | Oc1cccc(Nc2nc3ccccc3n2-c2ncnc(NCc3ccccn3)n2)c1
18 | > 50000 | > 25000 | 3200 | 3600 | – | – | – | – | – | – | – | – | – | – | – | – | – | Oc1cccc(Nc2nc3ccccc3n2-c2ncnc(NCC(F)(F)F)n2)c1
19 | 13 | 340 | 180 | 23 | 410 | 71 | 20 | – | – | – | – | – | – | – | – | – | – | CC(=O)Nc1ccc(Nc2nc3ccccc3n2-c2nc(C)nc(N)n2)cc1
20 | 27 | 1500 | 120 | 200 | 630 | 320 | 200 | – | – | – | – | – | – | – | – | – | – | Cc1nc(N)nc(-n2c(Nc3ccc4cn[nH]c4c3)nc3ccccc32)n1
21 | 340 | 6500 | 770 | 10400 | 22300 | 530 | 860 | – | – | – | – | – | – | – | – | – | – | Cc1nc(N)nc(-n2c(Nc3ccn(C(F)F)n3)nc3ccccc32)n1
22 | 80 | 1400 | 150 | 4000 | 3700 | 4600 | 3700 | – | – | – | – | – | – | – | – | – | – | C#CCNc1nc(C)nc(-n2c(Nc3ccn[nH]3)nc3ccccc32)n1
23 | 2 | 340 | 11 | 6 | 17 | 11 | 13 | – | – | – | – | – | – | – | – | – | – | CNC(=O)Nc1ccc(Nc2nc3ccccc3n2-c2nc(C)nc(N)n2)cc1
24 | 270 | 5300 | 580 | 6200 | 28800 | 4600 | 4100 | – | – | – | – | – | – | – | – | – | – | Cc1nc(N)nc(-n2c(Nc3ccn(C)n3)nc3ccccc32)n1
25 | 3000 | > 25000 | 1600 | 2000 | – | – | – | – | – | – | – | – | – | – | – | – | – | Oc1cccc(Nc2nc3ccccc3n2-c2ncncn2)c1
26 | 0.2 | 97 | 5 | 0.6 | 0.2 | 0.4 | 5 | – | – | – | – | – | – | – | – | – | – | Cc1nc(N)nc(-n2c(Nc3cc(O)cc(O)c3)nc3ccccc32)n1
27 | 24 | 340 | 45 | – | 1000 | 110 | 250 | – | – | 50 | 3 | 964 | 42 | 6 | 0.01 | – | – | Cc1nc(N)nc(-n2c(Nc3ccn[nH]3)nc3cc(F)c(F)cc32)n1
28 | 2300 | > 25000 | 870 | 720 | – | – | – | – | – | – | – | – | – | – | – | – | – | Oc1cccc(Nc2nc3ccccc3n2-c2ncnc(Nc3ccccc3)n2)c1
29 | 21 | 710 | 34 | 130 | – | – | – | – | – | – | – | – | – | – | – | – | – | Nc1ncnc(-n2c(Nc3cccc(O)c3)nc3ccccc32)n1
30 | 390 | 6300 | 410 | 340 | – | – | – | – | – | – | – | – | – | – | – | – | – | CCc1nc(N)nc(-n2c(Nc3cccc(O)c3)nc3ccccc32)n1
31 | 21400 | > 25000 | 680 | 1600 | 2400 | 710 | 30 | – | – | – | – | – | – | – | – | – | – | Cc1nc(N)nc(-n2c(NC3CCOCC3)nc3ccccc32)n1
32 | 150 | 3300 | 260 | 840 | 3100 | 1300 | 2300 | – | – | 30 | 1.4 | 1930 | 30 | – | 0.023 | 39 | 46 | Cc1nc(N)nc(-n2c(Nc3ccon3)nc3ccccc32)n1
33 | 28 | 960 | 140 | 230 | 1000 | 240 | 340 | – | – | – | – | – | – | – | – | – | – | Cc1nc(N)nc(-n2c(Nc3ccc4cc[nH]c4c3)nc3ccccc32)n1
34 | 250 | 2900 | 180 | 190 | – | – | – | – | – | – | – | – | – | – | – | – | – | CNc1ncnc(-n2c(Nc3cccc(O)c3)nc3ccccc32)n1
